Laboratory results as given in article PMC7723751 (Bioorganic chemistry, 2020).

Columns and labels:
[1] = target: T1, Human sEH (Homo sapiens, UniProt P34913); assay: Human sEH inhibition assay; type: biochemical; details: sEH IC50, human sEH 1 nM, CMNPC 5 μM, pH 7.0, 30 °C
T1 sequence (P34913 1-555): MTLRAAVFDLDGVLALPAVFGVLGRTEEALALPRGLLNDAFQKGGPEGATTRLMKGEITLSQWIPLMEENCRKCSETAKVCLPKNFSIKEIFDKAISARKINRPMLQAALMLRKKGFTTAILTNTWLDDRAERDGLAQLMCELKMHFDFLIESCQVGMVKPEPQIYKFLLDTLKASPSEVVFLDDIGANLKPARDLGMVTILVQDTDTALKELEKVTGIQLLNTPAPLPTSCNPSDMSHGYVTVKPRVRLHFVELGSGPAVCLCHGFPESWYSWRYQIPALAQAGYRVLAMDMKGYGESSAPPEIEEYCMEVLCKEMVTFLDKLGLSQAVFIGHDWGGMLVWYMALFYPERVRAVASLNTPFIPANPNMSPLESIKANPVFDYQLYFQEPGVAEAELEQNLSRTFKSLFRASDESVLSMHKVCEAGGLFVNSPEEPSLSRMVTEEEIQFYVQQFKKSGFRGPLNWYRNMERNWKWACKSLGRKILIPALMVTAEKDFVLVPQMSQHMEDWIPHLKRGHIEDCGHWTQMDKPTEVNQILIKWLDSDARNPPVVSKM

[2] = target: T2, human FAAH enzyme (Homo sapiens, UniProt O00519); assay: Human FAAH enzyme inhibition assay; type: biochemical
T2 sequence (O00519 1-579): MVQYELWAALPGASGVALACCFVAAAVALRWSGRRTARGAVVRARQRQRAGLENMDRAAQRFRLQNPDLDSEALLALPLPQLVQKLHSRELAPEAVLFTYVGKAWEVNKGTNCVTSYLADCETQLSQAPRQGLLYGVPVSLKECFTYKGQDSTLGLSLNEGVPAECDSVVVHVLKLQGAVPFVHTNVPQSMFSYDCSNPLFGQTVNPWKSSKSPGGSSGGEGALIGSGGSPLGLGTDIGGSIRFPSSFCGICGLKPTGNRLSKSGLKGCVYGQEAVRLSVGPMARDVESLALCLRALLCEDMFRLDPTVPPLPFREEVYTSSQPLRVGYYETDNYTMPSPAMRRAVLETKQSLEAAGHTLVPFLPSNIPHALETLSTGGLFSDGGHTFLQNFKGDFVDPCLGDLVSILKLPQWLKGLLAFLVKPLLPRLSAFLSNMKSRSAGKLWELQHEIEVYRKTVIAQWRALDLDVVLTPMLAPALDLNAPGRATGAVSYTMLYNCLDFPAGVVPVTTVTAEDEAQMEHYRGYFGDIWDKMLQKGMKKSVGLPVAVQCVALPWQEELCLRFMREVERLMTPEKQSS

IC50 [1] | IC50 [2] | SMILES
1300 nM | 77 nM | O=C(Nc1ccc(-c2nc3ccccc3s2)cc1)C1CCN(S(=O)(=O)c2ccc(F)cc2)CC1 [Compound 4-14, N-(4-(benzo[d]thiazol-2-yl)phenyl)-1-((4-fluorophenyl)sulfonyl)piperidine-4-carboxamide]
710 nM | 260 nM | O=C(Nc1ccc(-c2nc3ccccc3s2)cc1)C1CCN(S(=O)(=O)c2ccc(Cl)cc2)CC1 [Compound 4-15, N-(4-(benzo[d]thiazol-2-yl)phenyl)-1-((4-chlorophenyl)sulfonyl)piperidine-4-carboxamide]
26 nM | 80 nM | COc1ccccc1S(=O)(=O)N1CCC(C(=O)Nc2ccc(-c3nc4ccccc4s3)cc2)CC1 [Compound 4-8, N-(4-(benzo[d]thiazol-2-yl)phenyl)-1-((2-methoxyphenyl)sulfonyl)piperidine-4-carboxamide]
580 nM | 185 nM | O=C(Nc1ccc(-c2nc3ccccc3s2)cc1)C1CCN(S(=O)(=O)c2ccc(Br)cc2)CC1 [Compound 4-16, N-(4-(benzo[d]thiazol-2-yl)phenyl)-1-((4-bromophenyl)sulfonyl)piperidine-4-carboxamide]
36 nM | 10 nM | O=C(Nc1ccc(-c2nc3ccccc3s2)cc1)C1CCN(S(=O)(=O)c2ccc(Br)cc2Br)CC1 [Compound 4-21, N-(4-(benzo[d]thiazol-2-yl)phenyl)-1-((2,4-dibromophenyl)sulfonyl)piperidine-4-carboxamide]
180 nM | 36.2 nM | COc1ccc(S(=O)(=O)N2CCC(C(=O)Nc3ccc(-c4nc5ccccc5s4)cc3)CC2)c(OC)c1 [Compound 4-23, N-(4-(benzo[d]thiazol-2-yl)phenyl)-1-((2,4-dimethoxyphenyl)sulfonyl)piperidine-4-carboxamide]
420 nM | 16 nM | O=C(Nc1ccc(-c2nc3ccccc3s2)cc1)C1CCN(S(=O)(=O)c2cccs2)CC1 [Compound 4-1, N-(4-(benzo[d]thiazol-2-yl)phenyl)-1-(thiophen-2-ylsulfonyl)piperidine-4-carboxamide]
1300 nM | 270 nM | O=C(Nc1ccc(-c2nc3ccccc3s2)cc1)C1CCN(S(=O)(=O)c2c(Cl)cc(Cl)cc2Cl)CC1 [Compound 4-27, N-(4-(benzo[d]thiazol-2-yl)phenyl)-1-((2,4,6-trichlorophenyl)sulfonyl)piperidine-4-carboxamide]
84 nM | > 10000 nM | COc1ccc(S(=O)(=O)N2CCC(C(=O)Nc3ccc(-c4nc5ccccc5s4)cc3)CC2)cc1 [Compound 4-18, N-(4-(benzo[d]thiazol-2-yl)phenyl)-1-((4-methoxyphenyl)sulfonyl)piperidine-4-carboxamide]
6600 nM | 250 nM | O=C(Nc1ccc(-c2nc3ccccc3s2)cc1)C1CCN(S(=O)(=O)c2c(F)cc(F)cc2F)CC1 [Compound 4-26, N-(4-(benzo[d]thiazol-2-yl)phenyl)-1-((2,4,6-trifluorophenyl)sulfonyl)piperidine-4-carboxamide]
940 nM | 7 nM | Cc1cccc(S(=O)(=O)N2CCC(C(=O)Nc3ccc(-c4nc5ccccc5s4)cc3)CC2)c1 [Compound 4-12, N-(4-(benzo[d]thiazol-2-yl)phenyl)-1-(m-tolylsulfonyl)piperidine-4-carboxamide]
1100 nM | > 10000 nM | O=C(Nc1ccc(-c2nc3ccccc3s2)cc1)C1CCN(S(=O)(=O)c2cc(F)cc(F)c2)CC1 [Compound 4-24, N-(4-(benzo[d]thiazol-2-yl)phenyl)-1-((3,5-difluorophenyl)sulfonyl)piperidine-4-carboxamide]
195 nM | 11.4 nM | O=C(Nc1ccc(-c2nc3ccccc3s2)cc1)C1CCN(S(=O)(=O)c2ccc(F)cc2F)CC1 [Compound 4-19, N-(4-(benzo[d]thiazol-2-yl)phenyl)-1-((2,4-difluorophenyl)sulfonyl)piperidine-4-carboxamide]
29.2 nM | 5.5 nM | Cc1ccc(S(=O)(=O)N2CCC(C(=O)Nc3ccc(-c4nc5ccccc5s4)cc3)CC2)c(C)c1 [Compound 4-22, N-(4-(benzo[d]thiazol-2-yl)phenyl)-1-((2,4-dimethylphenyl)sulfonyl)piperidine-4-carboxamide]
370 nM | > 10000 nM | Cc1ccc(S(=O)(=O)N2CCC(C(=O)Nc3ccc(-c4nc5ccccc5s4)cc3)CC2)cc1 [Compound 4-17, N-(4-(benzo[d]thiazol-2-yl)phenyl)-1-tosylpiperidine-4-carboxamide]
3600 nM | > 10000 nM | Cc1cc(C)cc(S(=O)(=O)N2CCC(C(=O)Nc3ccc(-c4nc5ccccc5s4)cc3)CC2)c1 [Compound 4-25, N-(4-(benzo[d]thiazol-2-yl)phenyl)-1-((3,5-dimethylphenyl)sulfonyl)piperidine-4-carboxamide]
1100 nM | 51.6 nM | O=C(Nc1ccc(-c2nc3ccccc3s2)cc1)C1CCN(S(=O)(=O)c2cccc(Br)c2)CC1 [Compound 4-11, N-(4-(benzo[d]thiazol-2-yl)phenyl)-1-((3-bromophenyl)sulfonyl)piperidine-4-carboxamide]
620 nM | 14.6 nM | COc1cccc(S(=O)(=O)N2CCC(C(=O)Nc3ccc(-c4nc5ccccc5s4)cc3)CC2)c1 [Compound 4-13, N-(4-(benzo[d]thiazol-2-yl)phenyl)-1-((3-methoxyphenyl)sulfonyl)piperidine-4-carboxamide]
5900 nM | 2700 nM | O=C(Nc1ccc(-c2nc3ccccc3s2)cc1)C1CCN(S(=O)(=O)c2cc(Br)c(Cl)s2)CC1 [Compound 4-2, N-(4-(benzo[d]thiazol-2-yl)phenyl)-1-((4-bromo-5-chlorothiophen-2-yl)sulfonyl)piperidine-4-carboxamide]
2400 nM | 7.2 nM | O=C(Nc1ccc(-c2nc3ccccc3s2)cc1)C1CCN(S(=O)(=O)c2cccc(Cl)c2)CC1 [Compound 4-10, N-(4-(benzo[d]thiazol-2-yl)phenyl)-1-((3-chlorophenyl)sulfonyl)piperidine-4-carboxamide]
35 nM | 9.6 nM | Cc1ccccc1S(=O)(=O)N1CCC(C(=O)Nc2ccc(-c3nc4ccccc4s3)cc2)CC1 [Compound 4-7, N-(4-(benzo[d]thiazol-2-yl)phenyl)-1-(o-tolylsulfonyl)piperidine-4-carboxamide]
150 nM | 1.3 nM | O=C(Nc1ccc(-c2nc3ccccc3s2)cc1)C1CCN(S(=O)(=O)c2ccccc2F)CC1 [Compound 4-4, N-(4-(benzo[d]thiazol-2-yl)phenyl)-1-((2-fluorophenyl)sulfonyl)piperidine-4-carboxamide]
24 nM | 6.1 nM | O=C(Nc1ccc(-c2nc3ccccc3s2)cc1)C1CCN(S(=O)(=O)c2ccccc2Br)CC1 [Compound 4-6, N-(4-(benzo[d]thiazol-2-yl)phenyl)-1-((2-bromophenyl)sulfonyl)piperidine-4-carboxamide]
840 nM | 2230 nM | CC(C)c1cc(C(C)C)c(S(=O)(=O)N2CCC(C(=O)Nc3ccc(-c4nc5ccccc5s4)cc3)CC2)c(C(C)C)c1 [Compound 4-29, N-(4-(benzo[d]thiazol-2-yl)phenyl)-1-((2,4,6-triisopropylphenyl)sulfonyl)piperidine-4-carboxamide]
1700 nM | 13.4 nM | O=C(Nc1ccc(-c2nc3ccccc3s2)cc1)C1CCN(S(=O)(=O)c2cccc(F)c2)CC1 [Compound 4-9, N-(4-(benzo[d]thiazol-2-yl)phenyl)-1-((3-fluorophenyl)sulfonyl)piperidine-4-carboxamide]
1100 nM | 8.6 nM | O=C(Nc1ccc(-c2nc3ccccc3s2)cc1)C1CCN(S(=O)(=O)c2ccccc2)CC1 [Compound 4-3, N-(4-(benzo[d]thiazol-2-yl)phenyl)-1-(phenylsulfonyl)piperidine-4-carboxamide]
2670 nM | > 10000 nM | O=C(Nc1ccc(-c2nc3ccccc3s2)cc1)C1CCN(S(=O)(=O)c2c(F)c(F)c(F)c(F)c2F)CC1 [Compound 4-30, N-(4-(benzo[d]thiazol-2-yl)phenyl)-1-((perfluorophenyl)sulfonyl)piperidine-4-carboxamide]
790 nM | 84 nM | Cc1cc(C)c(S(=O)(=O)N2CCC(C(=O)Nc3ccc(-c4nc5ccccc5s4)cc3)CC2)c(C)c1 [Compound 4-28, N-(4-(benzo[d]thiazol-2-yl)phenyl)-1-(mesitylsulfonyl)piperidine-4-carboxamide]
